From patent US20230174523A1, “BENZENESULFONAMIDE DERIVATIVES AS TRAP1 MODULATORS AND USES THEREOF” (Amathus Therapeutics, Inc., priority 2020, published 2023) come the findings set out here.

Assay [1] relates to mIMCD3 Pkd1−/− cells. The assay can be described thus: Mouse cell derived cyst assay. The conditions noted are these: PKD KO mouse cell derived cyst forming assay; FIG. 13. Type of assay: cell-based. The protocol:
Mouse cell derived cyst assays were performed as described in Booij, Tijmen H et al., SLAS discovery: advancing life sciences R & D vol. 22.8 (2017): 974-984, or as described below.
Murine inner medullary collecting duct cell line (mIMCD3 Pkd1^−/− cells) • mIMCD3 Pkd1 KO cells were seeded in 384 wells plates in extracellular matrix. • 4 days after seeding, cultures were co-exposed to treatments and stimuli (2.5 μM forskolin); • After 72 h, cultures were fixed, stained for nuclei and actin cytoskeleton and imaged with 4× magnification; and • Image analysis of the 3D stack was done using Ominer™ image analysis software.

The subject of assay [2] is primary rat TH+ dopaminergic neurons. Briefly: ROS production in primary TH+ dopaminergic neurons injured with MPP+. It counts as cell-based. The conditions noted are these: injury with MPP+ (4 μM, 4 h); FIG. 6. The protocol: Rat dopaminergic neurons were cultured as described by Visanji et al., 2008. Briefly, pregnant female rat of 15 days of gestation are sacrificed using a deep anesthesia with CO2 chamber and a cervical dislocation. The midbrains obtained from 15-day-old rat embryos are dissected under a microscope. The embryonic midbrains are removed and placed in ice-cold medium of Leibovitz (L15) containing 2% of Penicillin-Streptomycin (PS) and 1% of bovine serum albumin (BSA). The ventral portion of the mesencephalic flexure, a region of the developing brain rich in dopaminergic neurons, is used for the cell preparations.
The midbrains are dissociated by trypsinisation for 20 min at 37° C. (solution at a final concentration of 0.05% trypsin and 0.02% EDTA). […] Viable cells are counted in a Neubauer cytometer using the trypan blue exclusion test. […] Six wells per condition are assessed. […]
For each condition, 20 pictures at 10× magnification (plate 1) or 30 pictures at 20× magnification (representing the whole well area) were automatically taken using ImageXpress®. […] The following read-outs were measured: Analysis of total number of TH neurons (TH positive neuron number), Analysis of the ROS into TH positive neurons, Analysis of caspase 3 positive TH neurons, and Analysis of total neurite network of TH positive neurons (in μm).
All values are expressed as mean+/−SEM (standard error of the mean). […]

For `Cc1nn(C)c2sc(C(=O)Nc3ccc(F)c(S(=O)(=O)Nc4ccc(Cl)cc4)c3)cc12` [Compound 705], the cyst formation entry in assay [1] was “preventing cyst formation”. For the same molecule, in assay [2], the “reactive oxygen species (ROS) production” value is “reduction of ROS”.
